Molecular target: T1, FXR LBD, GST (Homo sapiens, UniProt Q96RI1)
T1 construct: FXR LBD, GST; purchased Invitrogen PV4834
T1 sequence (Q96RI1 262-486 limits assumed): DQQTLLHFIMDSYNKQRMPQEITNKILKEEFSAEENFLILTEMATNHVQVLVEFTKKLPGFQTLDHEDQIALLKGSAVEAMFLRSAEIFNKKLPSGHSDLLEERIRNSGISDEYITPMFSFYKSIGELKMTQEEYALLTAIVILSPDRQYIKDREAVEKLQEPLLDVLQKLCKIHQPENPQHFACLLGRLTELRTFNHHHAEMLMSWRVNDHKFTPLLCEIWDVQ
Test: FXR Binding Assay (TR-FRET, Fluorescein-SRC2-2 coactivator peptide)
Details: for EC50: TR-FRET FXR LBD coactivator recruitment; for Emax / Pct Effect (Emax %): % Activity relative to positive control; for Emax: read-out: Pct Effect (Emax %)
Protocol: The interaction between the present compounds and FXR are evaluated by Time-Resolved Fluorescence Resonance Energy Transfer (TR-FRET) competition assay. FRET describes a radiation-free energy transfer between two chromophores: a donor fluorophore in its excited state can transfer energy to an acceptor fluorophore in close proximity (typically <10 nm). In contrast to standard FRET, TR-FRET unites time-resolved fluorescence (TRF) and the FRET principle, TRF use a long-lifetime lanthanide chelate as the donor species, while lanthanide chelates are unique in that their excited-state lifetime can be on the order of a millisecond or longer. Suitable neighbors for FRET are known in the art and can be obtained.
The assay was performed in following steps: first, prepared a) 1 mM compounds (100×) in DMSO; b) reaction buffer containing 1× buffer G with 10 mM DTT; c) 4×FXR LBD (20 nM) in 1× chilled buffer G. Second, performed 3-fold serial dilution of 1 mM test compounds using DMSO from 1 mM, 10 doses in a 96-well plate (249944, Nunc). Then, used complete buffer G to dilute each 100× compounds serial dilution to 2×. Third, added 10 μl 2× compound serial dilution into 384-well plate (3677, Corning). Then, added 5 μl FXR LBD into the assay plate. Prepared a solution containing 2 μM fluorescein-SRC2-2 (4×) and 20 nM Tb anti-GST antibody (4×) in buffer G at room temperature and started the reaction by adding 5 μl the above solution into each well of the assay plate. Centrifuged the assay plates at 1000 g for 1 min and then incubated at room temperature for lhr protected from light. Finally, the plate was read at wavelengths of 520 nm and 495 nm on Envision 2104 plate reader (PerkinElmer).
A ratio (Ratio520 nm/495 nm−Ratiobackground) was calculated for each well. The activity ratio was calculated as follow: […]
Ratiopositive: The average ratio for the positive control across the plate.
Ratiovehicle: The average ratio for negative controls across the plate.
EC50 was calculated by fitting % Activity values and log of compound concentrations to nonlinear regression (dose response-variable slope) with GraphPad 5.0.
X: log of compound concentration.

Compound | EC50 [nM] | Emax [%] | Pct Effect (Emax %) [%]
Cn1cc(C(=O)O)c2ccc(N3CC4CC(C3)N4CCc3c(-c4c(Cl)cccc4Cl)noc3C3CC3)cc21 [Example I49, 6-(6-(2-(5-cyclopropyl-3-(2,6-dichlorophenyl)isoxazol-4-yl)ethyl)-3,6-diazabicyclo[3.1.1]heptan-3-yl)-1-methyl-1H-indole-3-carboxylic Acid] | > 10000 | – | –
Cn1cc(C(=O)O)c2c(F)cc(N3CCN(CCc4c(-c5c(Cl)cccc5Cl)noc4C4CC4)CC3)cc21 [Example I46, 6-(4-(2-(5-cyclopropyl-3-(2,6-dichlorophenyl)isoxazol-4-yl)ethyl)piperazin-1-yl)-4-fluoro-1-methyl-1H-indole-3-carboxylic Acid] | 149 | 168 | –
O=C(O)c1cc(F)c2nc(N3C4CCC3CN(CCc3c(-c5c(Cl)cccc5Cl)noc3C3CC3)C4)sc2c1 [Example I31, 2-(3-(2-(5-cyclopropyl-3-(2,6-dichlorophenyl)isoxazol-4-yl)ethyl)-3,8-diazabicyclo[3.2.1]octan-8-yl)-4-fluorobenzo[d]thiazole-6-carboxylic Acid] | 41 | 45.1 | –
C[C@H]1CN(CCc2c(-c3c(Cl)cccc3Cl)noc2C2CC2)CCN1c1ccc2c(C(=O)O)cn(C)c2c1 [Example I39, (S)-6-(4-(2-(5-cyclopropyl-3-(2,6-dichlorophenyl)isoxazol-4-yl)ethyl)-2-methylpiperazin-1-yl)-1-methyl-1H-indole-3-carboxylic Acid] | 150 | 129 | –
O=C(O)c1ccc2nc(N3C4CCC3CN(CCc3c(-c5ccccc5OC(F)(F)F)noc3C3CC3)C4)sc2c1 [Example I34, 2-(3-(2-(5-cyclopropyl-3-(2-(trifluoromethoxy)phenyl)isoxazol-4-yl)ethyl)-3,8-diazabicyclo[3.2.1]octan-8-yl)benzo[d]thiazole-6-carboxylic Acid] | 236 | 41.5 | –
C[C@@H]1CN(CCc2c(-c3c(Cl)cccc3Cl)noc2C2CC2)C[C@@H](C)N1c1ccc2c(C(=O)O)cn(C)c2c1 [Example I44, 6-((2R,6R)-4-(2-(5-cyclopropyl-3-(2,6-dichlorophenyl)isoxazol-4-yl)ethyl)-2,6-dimethylpiperazin-1-yl)-1-methyl-1H-indole-3-carboxylic Acid] | 401 | 73.5 | –
CC(Cc1c(-c2c(Cl)cccc2Cl)noc1C1CC1)N1CCN(c2ccc3c(C(=O)O)cn(C)c3c2)CC1 (stereo not shown) [Example I23, 6-(4-(1-(5-cyclopropyl-3-(2,6-dichlorophenyl)isoxazol-4-yl)propan-2-yl)piperazin-1-yl)-1-methyl-1H-indole-3-carboxylic Acid] | 1370 | 35.7 | –
Cn1cc(C(=O)O)c2ccc(N3CCN(CCc4c(-c5ccc(Cl)cc5Cl)noc4C4CC4)CC3)cc21 [Example I16, 6-(4-(2-(5-cyclopropyl-3-(2,4-dichlorophenyl)isoxazol-4-yl)ethyl)piperazin-1-yl)-1-methyl-1H-indole-3-carboxylic Acid] | > 10000 | – | –
O=C(O)c1cc(F)c2nc(N3CC4CC(C3)C4OCc3c(-c4ccccc4OC(F)(F)F)noc3C3CC3)sc2c1 (stereo not shown) [Example I60, 2-(6-((5-cyclopropyl-3-(2-(trifluoromethoxy)phenyl)isoxazol-4-yl)methoxy)-3-azabicyclo[3.1.1]heptan-3-yl)-4-fluorobenzo[d]thiazole-6-carboxylic Acid] | 732 | 35.3 | –
Cn1cc(C(=O)O)c2ccc(N3CCN(CCc4c(-c5ccccc5Cl)noc4C4CC4)CC3)cc21 [Example I9, 6-(4-(2-(3-(2-chlorophenyl)-5-cyclopropylisoxazol-4-yl)ethyl)piperazin-1-yl)-1-methyl-1H-indole-3-carboxylic Acid] | 1220 | 206 | –
Cn1cc(C(=O)O)c2ccc(N3CC4CC3CN4CCc3c(-c4c(Cl)cccc4Cl)noc3C3CC3)cc21 (stereo not shown) [Example I48, 6-(5-(2-(5-cyclopropyl-3-(2,6-dichlorophenyl)isoxazol-4-yl)ethyl)-2,5-diazabicyclo[2.2.1]heptan-2-yl)-1-methyl-1H-indole-3-carboxylic Acid] | 1720 | – | 124.90
Cn1cc(C(=O)O)c2ccc(N3CC4CCC(C3)N4CCc3c(-c4c(Cl)cccc4Cl)noc3C3CC3)cc21 [Example I41, 6-(8-(2-(5-cyclopropyl-3-(2,6-dichlorophenyl)isoxazol-4-yl)ethyl)-3,8-diazabicyclo[3.2.1]octan-3-yl)-1-methyl-1H-indole-3-carboxylic Acid] | 200 | 158 | –
C[C@@H]1CN(CCc2c(-c3c(Cl)cccc3Cl)noc2C2CC2)C[C@H](C)N1c1ccc2c(C(=O)O)cn(C)c2c1 [Example I43, 6-((2S,6R)-4-(2-(5-cyclopropyl-3-(2,6-dichlorophenyl)isoxazol-4-yl)ethyl)-2,6-dimethylpiperazin-1-yl)-1-methyl-1H-indole-3-carboxylic Acid] | 1400 | 110 | –
Cn1cc(C(=O)O)c2ccc(N3CC4CC(C3)C4OCc3c(-c4c(Cl)cccc4Cl)noc3C3CC3)cc21 (stereo not shown) [Example I61, 6-(6-((5-cyclopropyl-3-(2,6-dichlorophenyl)isoxazol-4-yl)methoxy)-3-azabicyclo[3.1.1]heptan-3-yl)-1-methyl-1H-indole-3-carboxylic Acid] | 616 | 67.7 | –
O=C(O)c1ccc2nc(N3C4CCC3CN(CCc3c(-c5c(Cl)cccc5Cl)noc3C3CC3)C4)sc2c1 [Example I33, 2-(3-(2-(5-cyclopropyl-3-(2,6-dichlorophenyl)isoxazol-4-yl)ethyl)-3,8-diazabicyclo[3.2.1]octan-8-yl)benzo[d]thiazole-6-carboxylic Acid] | 97 | 43.3 | –
Cn1cc(C(=O)O)c2ccc(N3CC4CC3CN4CCc3c(-c4c(Cl)cccc4Cl)noc3C3CC3)cc21 (stereo not shown) [Example I29, 6-(5-(2-(5-cyclopropyl-3-(2,6-dichlorophenyl)isoxazol-4-yl)ethyl)-2,5-diazabicyclo[2.2.1]heptan-2-yl)-1-methyl-1H-indole-3-carboxylic Acid] | 3810 | – | 68.08
Cn1cc(C(=O)O)c2c(F)cc(N3CC4CC(C3)C4OCc3c(-c4c(Cl)cccc4Cl)noc3C3CC3)cc21 (stereo not shown) [Example I63, 6-(6-((5-cyclopropyl-3-(2,6-dichlorophenyl)isoxazol-4-yl)methoxy)-3-azabicyclo[3.1.1]heptan-3-yl)-4-fluoro-1-methyl-1H-indole-3-carboxylic Acid] | 102 | 106 | –
Cn1cc(C(=O)O)c2ccc(N3C[C@H]4C[C@@H]3CN4CCc3c(-c4c(Cl)cccc4Cl)noc3C3CC3)cc21 [Example I28, 6-((1R,4R)-5-(2-(5-cyclopropyl-3-(2,6-dichlorophenyl)isoxazol-4-yl)ethyl)-2,5-diazabicyclo[2.2.1]heptan-2-yl)-1-methyl-1H-indole-3-carboxylic Acid] | 1340 | 132 | –
O=C(O)c1ccc2nc(N3CC4CC(C3)C4OCc3c(-c4ccccc4OC(F)(F)F)noc3C3CC3)sc2c1 (stereo not shown) [Example I66, 2-(6-((5-cyclopropyl-3-(2-(trifluoromethoxy)phenyl)isoxazol-4-yl)methoxy)-3-azabicyclo[3.1.1]heptan-3-yl)benzo[d]thiazole-6-carboxylic Acid] | > 10000 | – | –
CC1CN(CCc2c(-c3c(Cl)cccc3Cl)noc2C2CC2)CCN1c1ccc2nc(C(=O)O)ccc2c1 (stereo not shown) [Example I51, 6-(4-(2-(5-cyclopropyl-3-(2,6-dichlorophenyl)isoxazol-4-yl)ethyl)-2-methylpiperazin-1-yl)quinoline-2-carboxylic Acid] | 74 | 96.5 | –
CC1CCN(c2ccc3c(C(=O)O)cn(C)c3c2)CCN1CCc1c(-c2c(Cl)cccc2Cl)noc1C1CC1 (stereo not shown) [Example I55, 6-(4-(2-(5-cyclopropyl-3-(2,6-dichlorophenyl)isoxazol-4-yl)ethyl)-5-methyl-1,4-diazepan-1-yl)-1-methyl-1H-indole-3-carboxylic Acid] | 2770 | 70.9 | –
Cn1cc(C(=O)O)c2ccc(N3CCN(CCc4c(-c5c(F)cccc5F)noc4C4CC4)CC3)cc21 [Example I11, 6-(4-(2-(5-cyclopropyl-3-(2,6-difluorophenyl)isoxazol-4-yl)ethyl)piperazin-1-yl)-1-methyl-1H-indole-3-carboxylic Acid] | 1640 | – | –

From US20220227745A1, “Compounds For Modulating FXR” (NANJING RUIJIE PHARMA TECH CO., LTD., priority 2019, published 2022)
